From ChEMBL document CHEMBL3612003, “The interaction of 4-thiazolidinone derivatives containing indolin-2-one moiety with P-glycoprotein studied using K562 cell lines” (Eur J Med Chem, 2015)

What was measured:
[1] = target: ATP-dependent translocase ABCB1 (Homo sapiens, UniProt P08183); assay: Inhibition of P-glycoprotein in human drug-resistant K562/ADR cells assessed as reduction in P-gp mediated rhodamine 123 efflux by spectrofluorometry; format: cell-based
K562 [2] = assay: Cytotoxicity against human drug-sensitive K562 cells assessed as reduction in cell viability incubated for 48 hrs by SRB assay; format: functional, cell-based; settings: K562, 48 h
[3] = Cytotoxicity against human drug-resistant K562/ADR cells expressing high levels of P-glycoprotein assessed as reduction in cell viability incubated for 48 hrs by SRB assay; format: functional, cell-based
K562 [4] = assay: Resistance index, ratio of IC50 for drug-resistant human K562/ADR cells to IC50 for drug-sensitive human K562 cells; format: functional

Chain of ATP-dependent translocase ABCB1 (P08183 whole entry): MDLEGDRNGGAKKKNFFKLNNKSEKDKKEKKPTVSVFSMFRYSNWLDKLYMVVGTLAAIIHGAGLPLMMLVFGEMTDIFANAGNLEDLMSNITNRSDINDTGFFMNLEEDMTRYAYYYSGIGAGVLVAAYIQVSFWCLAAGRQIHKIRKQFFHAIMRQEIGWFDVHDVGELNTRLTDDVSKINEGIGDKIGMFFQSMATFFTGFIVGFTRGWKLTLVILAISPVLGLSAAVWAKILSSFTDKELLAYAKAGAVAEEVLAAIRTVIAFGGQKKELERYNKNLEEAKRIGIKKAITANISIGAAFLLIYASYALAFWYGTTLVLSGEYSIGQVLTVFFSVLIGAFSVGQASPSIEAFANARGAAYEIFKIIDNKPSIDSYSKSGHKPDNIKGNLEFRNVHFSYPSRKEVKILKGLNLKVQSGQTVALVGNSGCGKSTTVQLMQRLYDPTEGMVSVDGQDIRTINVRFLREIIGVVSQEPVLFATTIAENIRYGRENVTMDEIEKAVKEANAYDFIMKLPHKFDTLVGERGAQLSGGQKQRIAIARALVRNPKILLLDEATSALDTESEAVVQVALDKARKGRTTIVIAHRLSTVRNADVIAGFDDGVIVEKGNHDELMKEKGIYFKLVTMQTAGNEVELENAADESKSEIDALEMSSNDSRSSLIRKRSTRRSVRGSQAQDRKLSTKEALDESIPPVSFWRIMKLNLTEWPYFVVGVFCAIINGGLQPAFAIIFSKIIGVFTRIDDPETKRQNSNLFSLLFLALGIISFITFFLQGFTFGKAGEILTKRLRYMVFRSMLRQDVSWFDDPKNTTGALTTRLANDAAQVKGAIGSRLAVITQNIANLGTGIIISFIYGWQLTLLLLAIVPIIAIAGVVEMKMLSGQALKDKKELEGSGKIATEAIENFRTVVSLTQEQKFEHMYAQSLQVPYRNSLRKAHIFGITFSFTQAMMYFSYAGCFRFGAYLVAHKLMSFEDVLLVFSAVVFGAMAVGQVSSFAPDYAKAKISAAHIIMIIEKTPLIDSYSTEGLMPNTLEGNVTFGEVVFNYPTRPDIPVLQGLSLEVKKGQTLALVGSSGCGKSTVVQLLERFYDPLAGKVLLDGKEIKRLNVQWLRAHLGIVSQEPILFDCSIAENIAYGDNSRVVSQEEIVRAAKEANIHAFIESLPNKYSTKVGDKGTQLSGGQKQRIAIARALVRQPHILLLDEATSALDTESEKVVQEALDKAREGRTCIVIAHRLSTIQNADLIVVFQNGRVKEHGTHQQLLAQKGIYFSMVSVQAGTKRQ

| Structure (SMILES) | Ki [1] | IC50 (K562 [2]) | IC50 [3] | Ratio IC50 (K562 [4]) |
| --- | --- | --- | --- | --- |
| CCN(CC)CCCn1c(=O)/c(=C/c2ccccc2O)s/c1=C1/C(=O)Nc2ccc(C)cc21 | 1.71 µM | 14.8 µM | 30.6 µM | 2.07 |
| CN(C)CCn1c(=O)/c(=C/c2ccc(O)cc2)s/c1=C1/C(=O)Nc2ccccc21 | > 2.23 µM | 4.28 µM | 6.16 µM | 1.44 |
| CCN(CC)CCCn1c(=O)/c(=C/c2ccc3c(c2)OCO3)s/c1=C1/C(=O)Nc2ccccc21 | 0.48 µM | 1.44 µM | 7.95 µM | 5.53 |
| CCN(CC)CCCn1c(=O)/c(=C/c2ccc3c(c2)OCO3)s/c1=C1/C(=O)Nc2ccc(C)cc21 | 0.94 µM | 2.04 µM | 5.03 µM | 2.46 |
| CCN(CC)CCCn1c(=O)/c(=C/c2ccc3c(c2)OCO3)s/c1=C1/C(=O)Nc2ccc(F)cc21 | > 2.23 µM | 7.38 µM | 12.5 µM | 1.7 |
| CCN(CC)CCCn1c(=O)/c(=C/c2ccc3c(c2)OCO3)s/c1=C1/C(=O)Nc2cc(F)ccc21 | > 2.23 µM | 2.26 µM | 2.98 µM | 1.32 |
| CCN(CC)CCCn1c(=O)/c(=C/c2ccc3c(c2)OCO3)s/c1=C1/C(=O)Nc2ccc(Cl)cc21 | 1.78 µM | 4.86 µM | 5.05 µM | 1.04 |
| CCN(CC)CCCn1c(=O)/c(=C/c2ccc(F)c(F)c2)s/c1=C1/C(=O)Nc2ccc(F)cc21 | > 2.23 µM | 13.4 µM | 6.48 µM | 0.48 |
| Cc1ccc2c(c1)/C(=c1\s/c(=C\c3ccc(O)cc3)c(=O)n1CCN(C)C)C(=O)N2 | > 2.23 µM | 6.74 µM | 6.8 µM | 1.01 |
| CCN(CC)CCCn1c(=O)/c(=C/c2ccc(F)cc2F)s/c1=C1/C(=O)Nc2cc(F)ccc21 | 1.01 µM | 3.69 µM | 4.12 µM | 1.12 |
| CCN(CC)CCCn1c(=O)/c(=C/c2cc(OC)c(OC)c(OC)c2)s/c1=C1/C(=O)Nc2ccccc21 | 0.73 µM | 2.58 µM | 6.65 µM | 2.58 |
| CCN(CC)CCCn1c(=O)/c(=C/c2cc(OC)c(OC)c(OC)c2)s/c1=C1/C(=O)Nc2ccc(C)cc21 | 0.32 µM | 4.17 µM | 2.02 µM | 0.48 |
| CCN(CC)CCCn1c(=O)/c(=C/c2cc(OC)c(OC)c(OC)c2)s/c1=C1/C(=O)Nc2ccc(F)cc21 | 0.12 µM | 2.39 µM | 2.86 µM | 1.2 |
| CCN(CC)CCCn1c(=O)/c(=C/c2cc(OC)c(OC)c(OC)c2)s/c1=C1/C(=O)Nc2cc(F)ccc21 | 0.47 µM | 1.18 µM | 1.64 µM | 1.39 |
| CCN(CC)CCCn1c(=O)/c(=C/c2cc(OC)c(OC)c(OC)c2)s/c1=C1/C(=O)Nc2ccc(Cl)cc21 | 0.22 µM | 0.82 µM | 1.65 µM | 2.02 |
| CN(C)CCn1c(=O)/c(=C/c2ccc(O)cc2)s/c1=C1/C(=O)Nc2ccc(F)cc21 | 1.34 µM | 1.3 µM | 6.14 µM | 4.73 |
| CN(C)CCn1c(=O)/c(=C/c2ccc(O)cc2)s/c1=C1/C(=O)Nc2cc(F)ccc21 | > 2.23 µM | 5.59 µM | 7.16 µM | 1.28 |
| CN(C)CCn1c(=O)/c(=C/c2ccc3c(c2)OCO3)s/c1=C1/C(=O)Nc2ccccc21 | > 2.23 µM | 1.32 µM | 0.78 µM | 0.59 |
| CCN(CC)CCCn1c(=O)/c(=C/c2ccc(O)cc2)s/c1=C1/C(=O)Nc2ccc(Cl)cc21 | > 2.23 µM | 24.6 µM | 48.8 µM | 1.98 |
| CCN(CC)CCCn1c(=O)/c(=C/c2ccccc2O)s/c1=C1\C(=O)Nc2ccc(C)cc21 | 1.71 µM | 14.8 µM | 30.6 µM | 2.07 |

| Structure (SMILES) | Ki [1] | IC50 (K562 [2]) | IC50 [3] | Ratio IC50 (K562 [4]) |
| --- | --- | --- | --- | --- |
| CN(C)CCn1c(=O)/c(=C/c2ccc(O)cc2)s/c1=C1\C(=O)Nc2ccccc21 | > 2.23 µM | 4.28 µM | 6.16 µM | 1.44 |
| CCN(CC)CCCn1c(=O)/c(=C/c2ccc3c(c2)OCO3)s/c1=C1\C(=O)Nc2ccccc21 | 0.48 µM | 1.44 µM | 7.95 µM | 5.53 |
| CCN(CC)CCCn1c(=O)/c(=C/c2ccc3c(c2)OCO3)s/c1=C1\C(=O)Nc2ccc(C)cc21 | 0.94 µM | 2.04 µM | 5.03 µM | 2.46 |
| CCN(CC)CCCn1c(=O)/c(=C/c2ccc3c(c2)OCO3)s/c1=C1\C(=O)Nc2ccc(F)cc21 | > 2.23 µM | 7.38 µM | 12.5 µM | 1.7 |
| CCN(CC)CCCn1c(=O)/c(=C/c2ccc3c(c2)OCO3)s/c1=C1\C(=O)Nc2cc(F)ccc21 | > 2.23 µM | 2.26 µM | 2.98 µM | 1.32 |
| CCN(CC)CCCn1c(=O)/c(=C/c2ccc3c(c2)OCO3)s/c1=C1\C(=O)Nc2ccc(Cl)cc21 | 1.78 µM | 4.86 µM | 5.05 µM | 1.04 |
| CCN(CC)CCCn1c(=O)/c(=C/c2ccc(F)c(F)c2)s/c1=C1\C(=O)Nc2ccc(F)cc21 | > 2.23 µM | 13.4 µM | 6.48 µM | 0.48 |
| Cc1ccc2c(c1)/C(=c1/s/c(=C\c3ccc(O)cc3)c(=O)n1CCN(C)C)C(=O)N2 | > 2.23 µM | 6.74 µM | 6.8 µM | 1.01 |
| CCN(CC)CCCn1c(=O)/c(=C/c2ccc(F)cc2F)s/c1=C1\C(=O)Nc2cc(F)ccc21 | 1.01 µM | 3.69 µM | 4.12 µM | 1.12 |
| CCN(CC)CCCn1c(=O)/c(=C/c2cc(OC)c(OC)c(OC)c2)s/c1=C1\C(=O)Nc2ccccc21 | 0.73 µM | 2.58 µM | 6.65 µM | 2.58 |
| CCN(CC)CCCn1c(=O)/c(=C/c2cc(OC)c(OC)c(OC)c2)s/c1=C1\C(=O)Nc2ccc(C)cc21 | 0.32 µM | 4.17 µM | 2.02 µM | 0.48 |
| CCN(CC)CCCn1c(=O)/c(=C/c2cc(OC)c(OC)c(OC)c2)s/c1=C1\C(=O)Nc2ccc(F)cc21 | 0.12 µM | 2.39 µM | 2.86 µM | 1.2 |
| CCN(CC)CCCn1c(=O)/c(=C/c2cc(OC)c(OC)c(OC)c2)s/c1=C1\C(=O)Nc2cc(F)ccc21 | 0.47 µM | 1.18 µM | 1.64 µM | 1.39 |
| CCN(CC)CCCn1c(=O)/c(=C/c2cc(OC)c(OC)c(OC)c2)s/c1=C1\C(=O)Nc2ccc(Cl)cc21 | 0.22 µM | 0.82 µM | 1.65 µM | 2.02 |
| CN(C)CCn1c(=O)/c(=C/c2ccc(O)cc2)s/c1=C1\C(=O)Nc2ccc(F)cc21 | 1.34 µM | 1.3 µM | 6.14 µM | 4.73 |
| CN(C)CCn1c(=O)/c(=C/c2ccc(O)cc2)s/c1=C1\C(=O)Nc2cc(F)ccc21 | > 2.23 µM | 5.59 µM | 7.16 µM | 1.28 |
| CN(C)CCn1c(=O)/c(=C/c2ccc3c(c2)OCO3)s/c1=C1\C(=O)Nc2ccccc21 | > 2.23 µM | 1.32 µM | 0.78 µM | 0.59 |
| CCN(CC)CCCn1c(=O)/c(=C/c2ccc(O)cc2)s/c1=C1\C(=O)Nc2ccc(Cl)cc21 | > 2.23 µM | 24.6 µM | 48.8 µM | 1.98 |
| COc1cccc2c1C(=O)c1c(O)c3c(c(O)c1C2=O)C[C@@](O)(C(=O)CO)C[C@@H]3O[C@H]1C[C@H](N)[C@H](O)[C@H](C)O1 [DOXORUBICIN] | – | – | – | 6.75 |
